Values joined by “and” are separate entries in the source; they are usually repeats but may differ in a detail not shown here. Equal values may be shown once.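 Values below derive from 48-hour exposures of cells grown in 96-well plates, with endpoints linearly interpolated between the two concentrations bracketing the appropriate inhibition level. GI50 is the concentration that inhibits growth by half. TGI denotes the concentration required for complete inhibition of growth.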
Legend:
Experiment in all cases: NCI anticancer screen, dose series, 48 h
RXF 393 renal = tested on: RXF 393 renal
NCI-H23 lung = tested on: NCI-H23 lung
SNB-19 CNS = tested on: SNB-19 CNS
UACC-257 melanoma = tested on: UACC-257 melanoma
HOP-62 NSCLC = tested on: HOP-62 NSCLC
HCC-2998 colon = tested on: HCC-2998 colon
A498 renal = tested on: A498 renal
SK-MEL-2 melanoma = tested on: SK-MEL-2 melanoma
SN12C renal = tested on: SN12C renal
SF-268 CNS = tested on: SF-268 CNS

Compound | TGI (RXF 393 renal) | TGI (NCI-H23 lung) | TGI (SNB-19 CNS) | TGI (UACC-257 melanoma) | TGI (HOP-62 NSCLC) | TGI (HCC-2998 colon) | TGI (A498 renal) | TGI (SK-MEL-2 melanoma) | TGI (SN12C renal) | TGI (SF-268 CNS) | GI50 (RXF 393 renal) [µM] | GI50 (NCI-H23 lung) [µM] | GI50 (SNB-19 CNS) [µM] | GI50 (UACC-257 melanoma) [µM] | GI50 (HOP-62 NSCLC) [µM] | GI50 (HCC-2998 colon) [µM] | GI50 (A498 renal) [µM] | GI50 (SK-MEL-2 melanoma) [µM] | GI50 (SN12C renal) [µM] | GI50 (SF-268 CNS) [µM]
CN1C(=O)C(C)(C)NS1(=O)=O | > 100 µM | > 100 µM | > 100 µM | > 100 µM | > 100 µM | > 100 µM | > 100 µM | > 100 µM | > 100 µM | > 100 µM | – | – | – | – | – | – | – | – | – | –
CS(=O)(=O)OCCCCOS(C)(=O)=O | 223 µM and > 1000 µM | 249 µM and > 1000 µM | 233 µM and > 1000 µM | 230 µM and > 1000 µM | 244 µM and 983 µM | 201 µM and > 1000 µM | 249 µM and > 1000 µM | 250 µM and > 1000 µM | 250 µM and > 1000 µM | 223 µM and > 1000 µM | 523 | 685 | > 862 | 571 | 492 | > 1000 | > 883 | > 1000 | 623 | 424
O=C(/C=C/c1ccccc1)Nc1ncc(Cc2ccccc2)s1 | 1.59 µM | > 49.1 µM | > 52.3 µM | > 100 µM | > 39 µM | 3.42 µM | 3.39 µM | > 69.1 µM | > 52 µM | > 100 µM | 0.267 | 0.562 | 0.392 | 10.7 | 0.398 | 0.303 | 0.24 | 0.479 | 0.597 | 0.963
O=C(CC(O)c1cccnc1)CC(O)c1cccnc1 (centres undefined) | 32.1 µM | 52 µM | 55.4 µM | 36.1 µM | 50.8 µM | 28.6 µM | 30.6 µM | 37 µM | 38.8 µM | > 95.9 µM | – | – | – | – | – | – | – | – | – | –
CC(/C=C/C=C\C=C\C=C(/C)C(=O)NC(C)CO)=C\C(C)C(O)/C(C)=C/C(C)CCc1ccccc1 (centres undefined) | 26.6 µM | 17 µM | 35.8 µM | 12.3 µM | 37.5 µM | 26.7 µM | 26.7 µM | 29.6 µM | 26.4 µM | 28.4 µM | – | – | – | – | – | – | – | – | – | –
COc1ccc(Nc2[nH]n(C3=Nc4ccccc4Sc4ccccc43)c(=O)c2C#N)cc1 | 9.75 µM | 6.64 µM | > 100 µM | 7.03 µM | > 100 µM | 10.5 µM | 8.01 µM | 5 µM | > 100 µM | 34.3 µM | 1.73 | 0.637 | 3.53 | 1.13 | 3.06 | 2.32 | 1.39 | 1.74 | 2.36 | 2.37
O=c1[nH]ccc2nc(N3CCC(O)CC3)nc(Nc3ccc(N4CCOCC4)cc3)c12 | 7.5 µM | > 100 µM | > 100 µM | > 100 µM | > 100 µM | > 81.2 µM | 9.77 µM | > 100 µM | > 100 µM | > 100 µM | 1.74 | 8.71 | > 78.8 | > 100 | 5.32 | – | 1.49 | 2.27 | 2.55 | 5.94
